{"source": "patent US6869948B1", "about": "(Boehringer Ingelheim Pharma KG, priority 1998, dated 2005)", "key": {"[1]": {"assay_type": "physicochemical", "description": "Under ambient conditions the monohydrate of the meloxicam-meglumin salt is the stable modification, but at a relative humidity of over 75% a dihydrate is formed. The enclosed water can only be eliminated from the dihydrate under conditions of very great dryness. […] By intensive drying over a fairly long period the anhydrous form changes more and more into an amorphous form and after 24 h at 100° C. the material is totally amorphous.\nThe relevant parameters of the dehydration process are the temperature and duration of dehydration, the influence of which were observed by X-ray powder diffraction. The longer the dehydration process lasts, the less crystalline is the resulting material. […] The X-ray powder diffraction diagrams obtained after 1 hour at 80° C., 15 hours at 70° C., 20 hours at 80° C. and 24 hours at 100° C. are shown in FIG. 7."}, "[2]": {"settings": "cited from earlier work"}, "[3]": {"experiment": "Saturation solubility of meloxicam and its salts in various dissolving media", "assay_type": "physicochemical", "settings": "0.1 N hydrochloric acid, pH 1, simulated gastric fluid, read-out: Solubility at ambient temperature"}, "[4]": {"settings": "depending on the formulation; cited from earlier work"}}, "note": "Read-outs that look alike come from different tables or passages of the source."}
{"compound": "CNC[C@H](O)[C@@H](O)[C@H](O)[C@H](O)CO.Cc1cnc(NC(=O)C2=C(O)c3ccccc3S(=O)(=O)N2C)s1", "note": "[Example 3, Anhydrous Meloxicam Meglumin Salt]", "values": [{"measurement": "stability of the anhydrous form after dehydration", "setting": "[1]", "value": "very rapidly absorbs water to form the monohydrate form"}]}
{"compound": "ibuprofen-lysinate", "values": [{"measurement": "time after administration to peak-plasma level", "setting": "[2]; 8 fasting test subjects, ibuprofen-lysinate 1000 mg film-coated tablet, ibuprofenic acid 600 mg sugar-coated tablet", "value": 0.55, "unit": "h"}, {"measurement": "time after administration to peak-plasma level", "setting": "[2]; non-fasting test subjects", "value": 1.18, "unit": "h"}]}
{"compound": "Cc1cnc(NC(=O)C2=C(O)c3ccccc3S(=O)(=O)N2C)s1", "note": "[Meloxicam, 4-hydroxy-2-methyl-N-(5-methyl-2-thiazolyl)-2H-1,2-benzothiazine-3-carboxamide-1,1-dioxide]", "values": [{"measurement": "solubility thermodynamic", "setting": "[3]", "value": 0.9, "unit": "µg/mL"}, {"measurement": "time to maximum plasma levels", "setting": "[4]", "value": "2 to 8", "unit": "h"}]}
{"compound": "CNC[C@H](O)[C@@H](O)[C@H](O)[C@H](O)CO.Cc1cnc(NC(=O)C2=C(O)c3ccccc3S(=O)(=O)N2C)s1.O", "note": "[Example 1, Meloxicam Meglumin Salt Monohydrate]", "values": [{"measurement": "hygroscopic properties", "setting": "[1]", "value": "hygroscopic"}, {"measurement": "solid-state change on dehydration (X-ray powder diffraction)", "setting": "[1]; 24 hours at 100° C.", "value": "anhydrous and totally amorphous"}, {"measurement": "solid-state change on dehydration (X-ray powder diffraction)", "setting": "[1]; one hour at 80° C.", "value": "no change can be detected"}]}
